Data from patent publication US7166634B2, “Bis-indole pyrroles useful as antimicrobials agents” (Nereus Pharmaceuticals, Inc., priority 2004, dated 2007).
Values after ≈ are worked out from the molar mass of the structure shown. Values joined by “and” are separate entries in the source; they are usually repeats but may differ in a detail not shown here. Equal values may be shown once.

Experiments:
Assay in all cases: MIC, broth microdilution (NCCLS M7-A5)
Format in all cases: cell-based
[1] = test system: S. epidermidis - ATCC 700578; set-up: Staph Epi 700578 MIC: unit not given here; settings: for MIC: S. epidermidis - ATCC 700578, Table 3; for Staph Epi 700578 MIC: Table 4, averages of 2 experiments, * single experiment, both values given when differing >2 fold
Procedure: (§1) Minimum inhibitory concentrations (MICs) are determined according to the National Committee for Clinical Laboratory Standards (NCCLS) susceptibility test guideline M7-A5 (Ferraro, M. 2001 Methods for Dilution Antimicrobial Susceptibility Tests for Bacteria that Grow Aerobically; Approved Standard (NCCLS). National Committee for Clinical Laboratory Standards (NCCLS), Villanova) to quantify the antimicrobial activity of the compounds of the present embodiment against various pathogenic bacteria. Susceptibility testing is performed by broth microdilution in accordance with National Committee for Clinical Laboratory Standards (NCCLS) guidelines. This procedure entails combining the test compounds with a standardized number of cells, incubating at the temperature and amount of time appropriate for each particular organism, and visually scoring the concentration at which no growth was apparent in the test wells. The panel includes both drug sensitive and drug resistant isolates of both gram-positive and gram-negative bacteria, including: S. aureus (both MSSA and MRSA), S. pneumoniae (wild type and penicillin-resistant), vancomycin-sensitive E. faecalis, vancomycin-resistant E. faecium, E. coli, H. influenzae and P. aeruginosa.
(§2) Susceptibility testing was performed by broth microdilution in accordance with National Committee for Clinical Laboratory Standards (NCCLS) guidelines. Antimicrobial data for compounds of Formulae II, III, IV, VI, VII, VIII, IX, XII, XIII, XIV, XV′, XV, XVI, XVII, XVIII, XXI′, XXII, XXIII, XXIV, and XXV are shown in Tables 3, 4 and 5.

[2] = test system: H. influenzae - ATCC 49766; settings: for MIC: H. influenzae - ATCC 49766, Table 3; for H. inf. 49766: Table 4 (MIC), averages of 2 experiments, * single experiment, both values given when differing >2 fold
Procedure: as §1, §2

[3] = test system: H. influenzae - ATCC 49247; settings: for MIC: H. influenzae - ATCC 49247, Table 3; for H. inf. 49247: Table 4 (MIC), averages of 2 experiments, * single experiment, both values given when differing >2 fold
Procedure: as §1, §2

E. coli - imp = settings: for MIC: E. coli - imp, Table 3; for E. coli imp MIC: Table 5
Procedure: as §1, §2

S. aureus - MSSA (29213) = settings: for MIC: S. aureus - MSSA, Table 3; for MSSA 29213 MIC: Table 4, averages of 2 experiments, * single experiment, both values given when differing >2 fold, in µg/mL
Procedure: as §1, §2

S. aureus - MRSA (43300) = settings: for MIC: S. aureus - MRSA, Table 3; for MRSA 43300 MIC: Table 4, averages of 2 experiments, * single experiment, both values given when differing >2 fold, in µg/mL
Procedure: as §1, §2

[4] = test system: S. pneumoniae - penicillin resistant (51915); settings: for MIC: S. pneumoniae - penicillin resistant, Table 3; for S. pneumo 51915 Pen R MIC: Table 4, averages of 2 experiments, * single experiment, both values given when differing >2 fold
Procedure: as §1, §2

E. coli - ATCC 25922 = settings: Table 3
Procedure: as §1, §2

[5] = test system: E. faecium - Van^r (VRE 700221); settings: for MIC: E. faecium - Van^r, Table 3; for VRE 700221 MIC: Table 4, averages of 2 experiments, * single experiment, both values given when differing >2 fold
Procedure: as §1, §2

[6] = test system: S. pneumoniae - penicillin sensitive (49619); settings: for MIC: S. pneumoniae - penicillin sensitive, Table 3; for S. pneumo 49619 Pen. S MIC: Table 4, averages of 2 experiments, * single experiment, both values given when differing >2 fold
Procedure: as §1, §2

[7] = test system: S. epidermidis - ATCC 700582; set-up: Staph Epi 700582 MIC: unit not given here; settings: for MIC: S. epidermidis - ATCC 700582, Table 3; for Staph Epi 700582 MIC: Table 4, averages of 2 experiments, * single experiment, both values given when differing >2 fold
Procedure: as §1, §2

[8] = test system: E. faecalis - Van^s (VSE 29212); set-up: VSE 29212 MIC: unit not given here; settings: for MIC: E. faecalis - Van^s, Table 3; for VSE 29212 MIC: Table 4, averages of 2 experiments, * single experiment, both values given when differing >2 fold
Procedure: as §1, §2

Structure (SMILES) | Staph Epi 700578 MIC [1] | H. inf. 49766 [2] | H. inf. 49247 [3] | E. coli imp MIC (E. coli - imp) | MSSA 29213 MIC (S. aureus - MSSA (29213)) | MRSA 43300 MIC (S. aureus - MRSA (43300)) | S. pneumo 51915 Pen R MIC ([4]; in µg/mL) | VRE 700221 MIC ([5]; in µg/mL) | Staph Epi 700582 MIC [7] | VSE 29212 MIC [8] | S. pneumo 49619 Pen. S MIC ([6]; in µg/mL) | other results
COC(=O)c1[nH]cc(-c2c[nH]c3ccc(Cl)cc23)c1-c1c[nH]c2ccc(Cl)cc12 [III] | – | – | – | – | – | – | – | – | – | – | – | MIC [1]: 4 mg/L (≈ 9.43 µM); MIC [2]: 12 mg/L (≈ 28.3 µM); MIC [3]: 16 mg/L (≈ 37.7 µM); MIC (E. coli - imp): 16 mg/L (≈ 37.7 µM); MIC (S. aureus - MSSA (29213)): 1.8 mg/L (≈ 4.24 µM); MIC (S. aureus - MRSA (43300)): 2 mg/L (≈ 4.71 µM); MIC [4]: 24 mg/L (≈ 56.6 µM); MIC (E. coli - ATCC 25922): >32 mg/L; MIC [5]: 8 mg/L (≈ 18.9 µM); MIC [6]: 24 mg/L (≈ 56.6 µM); MIC [7]: 4 mg/L (≈ 9.43 µM); MIC [8]: 8 mg/L (≈ 18.9 µM)
COC(=O)c1[nH]cc(-c2c[nH]c3cc(Cl)c(Cl)cc23)c1-c1c[nH]c2ccc(Cl)cc12 [II] | – | – | – | – | – | – | – | – | – | – | – | MIC [1]: 1 mg/L (≈ 2.18 µM); MIC [2]: 6 mg/L (≈ 13.1 µM); MIC [3]: 2 mg/L (≈ 4.36 µM); MIC (E. coli - imp): 6 mg/L (≈ 13.1 µM); MIC (S. aureus - MSSA (29213)): 0.8 mg/L (≈ 1.74 µM); MIC (S. aureus - MRSA (43300)): 1 mg/L (≈ 2.18 µM); MIC [4]: 8 mg/L (≈ 17.4 µM); MIC (E. coli - ATCC 25922): >32 mg/L; MIC [5]: 2 mg/L (≈ 4.36 µM); MIC [6]: 8 mg/L (≈ 17.4 µM); MIC [7]: 1 mg/L (≈ 2.18 µM); MIC [8]: 1.5 mg/L (≈ 3.27 µM)
Clc1cc2[nH]cc(-c3c[nH]cc3-c3c[nH]c4cc(Cl)c(Cl)cc34)c2cc1Cl [IV] | – | – | – | – | – | – | – | – | – | – | – | MIC [1]: 1 mg/L (≈ 2.3 µM); MIC [2]: 6 mg/L (≈ 13.8 µM); MIC [3]: 4 mg/L (≈ 9.19 µM); MIC (E. coli - imp): 6 mg/L (≈ 13.8 µM); MIC (S. aureus - MSSA (29213)): 1.1 mg/L (≈ 2.53 µM); MIC (S. aureus - MRSA (43300)): 1.5 mg/L (≈ 3.45 µM); MIC [4]: 20 mg/L (≈ 46 µM); MIC (E. coli - ATCC 25922): >32 mg/L; MIC [5]: 2 mg/L (≈ 4.6 µM); MIC [6]: 20 mg/L (≈ 46 µM); MIC [7]: 1 mg/L (≈ 2.3 µM); MIC [8]: 2.5 mg/L (≈ 5.75 µM)
COC(=O)c1[nH]c(C(=O)OC)c(-c2c[nH]c3ccccc23)c1-c1c[nH]c2ccccc12 [IX] | 16 | >32 | >32 | >32 µg/mL | >32 | >32 | >32 | >32 | 16 | >32 | – | S. pneumo 49619 Pen. S MIC [6]: 32, >32
O=C(O)c1[nH]c(C(=O)O)c(-c2c[nH]c3ccc(Cl)cc23)c1-c1c[nH]c2ccc(Cl)cc12 [VIII] | >16 | >16 | >16 | >16 µg/mL | >16 | >16 | >16 | >16 | >16 | >16 | >16 | –
O=C(O)c1[nH]cc(-c2c[nH]c3ccc(Cl)cc23)c1-c1c[nH]c2ccc(Cl)cc12 [VII] | 16* | >32* | >32* | >32 µg/mL | 12* | 16* | >32* | >32* | 16* | >32* | >32* | –
COC(=O)c1[nH]c(C(=O)OC)c(-c2c[nH]c3ncccc23)c1-c1c[nH]c2ccc(Cl)cc12 [XIII] | 8* | >32* | >32* | >32 µg/mL | 3* | 4* | >32* | 32* | 8* | 16* | >32* | –
O=C(O)c1[nH]cc(-c2c[nH]c3cc(Cl)c(Cl)cc23)c1-c1c[nH]c2ccc(Cl)cc12 [XII] | 3 | 10 | 8 | 20 µg/mL | 4 | 6 | >32 | 8 | 6 | 8 | >32 | –
COC(=O)c1[nH]cc(-c2c[nH]c3cc(Cl)c(Cl)cc23)c1-c1c[nH]c2ncccc12 [XIV] | 8* | >32* | >32* | – | 6 | 6 | 24* | 6 | 8* | 12 | 32* | –
COC(=O)c1[nH]c(C(=O)OC)c(-c2c[nH]c3ccc(F)cc23)c1-c1c[nH]c2ccc(F)cc12 [XVIII] | 16* | >32* | >32* | >32 µg/mL | 8* | 12* | >32* | >32* | 16* | >32* | >32* | –
COC(=O)c1[nH]cc(-c2c[nH]c3cc(F)c(Cl)cc23)c1-c1c[nH]c2ccc(Cl)cc12 [XVII] | 1* | 16* | >32* | 8 µg/mL | 1* | 1* | 24* | 4* | 1* | 4* | 16* | –
COC(=O)c1[nH]cc(-c2c[nH]c3ccc(Br)cc23)c1-c1c[nH]c2ccc(Br)cc12 [XVI] | 2.5 | 16 and > 32 | >32 | >32, 32 ug/mL | 1.4 | 2.5 | 24 | 6 | 2.5 | 5 | 20 | –
COC(=O)c1[nH]c(C(=O)OC)c(-c2c[nH]c3ccc(F)cc23)c1-c1c[nH]c2ccccc12 [XXIII] | >32* | >32* | >32* | >32 µg/mL | 16* | >32* | >32* | >32* | 16* | >32* | >32* | –
COC(=O)c1[nH]c(C(=O)OC)c(-c2c[nH]c3cc(F)c(Cl)cc23)c1-c1c[nH]c2ccc(Cl)cc12 [XXII] | 2.5 | 4 | – | >32 µg/mL | 1.25 | 1.5 | 32 | – | 2 | 6 | 32 | VRE 700221 MIC [5]: 16 and > 32
COC(=O)c1[nH]cc(-c2c[nH]c3cc(Cl)c(F)cc23)c1-c1c[nH]c2ccc(F)cc12 [XXIV] | 2* | 16* | 16* | 8 µg/mL | 1* | 1.5* | 16* | 8* | 2* | 4* | 23* | –
COC(=O)c1[nH]c(C(=O)OC)c(-c2c[nH]c3cc(F)ccc23)c1-c1c[nH]c2ccccc12 [XXV] | 8* | 16* | 8* | >32 µg/mL | 4* | 8* | >32* | >32* | 8* | >32* | 32* | –
COC(=O)c1[nH]c(C(=O)OC)c(-c2c[nH]c3ccc(Cl)cc23)c1-c1c[nH]c2ccc(F)cc12 [XX] | 8 | >32 | – | >32 µg/mL | 4 | 5 | – | >32 | 8 | 24 | 32 | S. pneumo 51915 Pen R MIC [4]: >32, 32
